# Laboratory results as given in US7939509B2, “Partial and full agonists of A1 adenosine receptors” (Gilead Sciences, Inc., priority 2002, dated 2011).
# Tests used:
# Type in all cases: in vivo, rat
# awake rats [1] = experiment: Anti-lipolytic effect: serum free fatty acids (FFA) in overnight-fasted awake rats
# Procedure: All experimental procedures were performed under a protocol approved by the Institutional Animal Care and Use Committee of CV Therapeutics, Inc., and in accordance with the recommendations set forth in the Guide for the Care and Use of Laboratory Animals published by the National Research Council. Male Sprague-Dawley rats (225-250 gm) with either one or two indwelling catheters (carotid and jugular) were purchased from Charles River Laboratories (Wilmington, Mass.). Animals were housed 1 per cage in a room maintained on a 12 h light/dark cycle (light on 06.00-18.00 h) under constant temperature (22-25° C.) and with ad libitum access to food and water. The anti-lipolytic effects of Compound A were studied in awake rats. Animals were fasted overnight before experimental use. On the day of the experiment, animals were put in metabolic cages and left undisturbed to acclimate to the environment for 1-2 hrs. An infusion set (21 G×¾″, 0.8×19 mm U.T.W., 3½″, 9 cm tubing, volume 0.15 ml) was connected to the arterial catheter for blood sampling. A 1% sodium citrate saline solution was used to flush the lines. A pre-treatment blood sample was obtained from each animal to determine baseline values for FFA and TG. Compound A was given via oral gavage, sc injection, iv injection, or iv infusion, as described, for each different series of experiments. Blood samples were collected into serum separator tubes (Becton Dickinson, Franklin Lakes, N.J.) at pre-determined times, Blood was allowed to clot, and then centrifuged at 8000 rpm for 4 min at 4° C. The serum was stored at −80° C. and was thawed at 4° C. for determinations of FFA and TG contents. […] Sodium citrate and Triton WR1339 were purchased from Sigma (St. Louis, Mo.). Nicotinic acid and PEG 400 were purchased from VWR (by EMD Chemicals). Triton WR 1339 was diluted in warm saline (˜37° C.) with frequent vortexing. […] Compound A was dissolved in PEG 400, and then diluted with distilled water to make a 20% PEG drug solution. Serum FFA and TGs were measured using commercial kits from Wako Chemicals, Richmond, Va. Glucose and Insulin were measured using commercial kits from Wako Chemicals USA (Richmond, Va.). All data are reported as mean±SEM. Statistical analysis of data from experiments with 2 treatment groups was performed using the unpaired Student's t-test. Two way analysis of variance followed by Bonferroni's test was used for multiple comparisons.
# normal rats = experiment: Triglyceride production after Triton WR 1339 injection in rats
# Procedure: FIG. 3 graphs the time-dependent increase of TG caused by Triton […] in the absence or presence of Compound A as described in Example 31. After a 4 hour fast, rats received either vehicle or Compound A (5 mg/kg) via SC injection. After 5 minutes, Triton (400 mg/kg) was given as a slow intravenous bolus. Data are presented as ±SEM of values from 7-8 animals. Slope of the lines (determined by linear regression analysis) was 5.6±0.1 and 3.8±0.2 for vehicle and Compound A groups, respectively. Data were analyzed using 2 way ANOVA followed by Bonferroni's post hoc test.
# (§1) The anti-lipolytic effects of Compound A were studied in awake rats. Animals were fasted overnight before experimental use. On the day of the experiment, animals were put in metabolic cages and left undisturbed to acclimate to the environment for 1-2 hrs. An infusion set (21 G×¾″, 0.8×19 mm U.T.W., 3½″, 9 cm tubing, volume 0.15 ml) was connected to the arterial catheter for blood sampling. A 1% sodium citrate saline solution was used to flush the lines. A pre-treatment blood sample was obtained from each animal to determine baseline values for FFA and TG. Compound A was given via oral gavage, sc injection, iv injection, or iv infusion, as described, for each different series of experiments. Blood samples were collected into serum separator tubes (Becton Dickinson, Franklin Lakes, N.J.) at pre-determined times, Blood was allowed to clot, and then centrifuged at 8000 rpm for 4 min at 4° C. The serum was stored at −80° C. and was thawed at 4° C. for determinations of FFA and TG contents.
# Compound A was synthesized by the Department of Medicinal and Bio-Organic chemistry of CV Therapeutics, Inc. Sodium citrate and Triton WR1339 were purchased from Sigma (St. Louis, Mo.). […] Serum FFA and TGs were measured using commercial kits from Wako Chemicals, Richmond, Va. Glucose and Insulin were measured using commercial kits from Wako Chemicals USA (Richmond, Va.).
# To further investigate the mechanism of the decrease in TG levels by Compound A, total TG production was measured in normal rats. […]
# awake rats [2] = experiment: Insulin dose response to reduce FFA with and without Compound A in awake rats
# Procedure: FIG. 6 graphically represents how Compound A potentates the effect of insulin in reducing FFA levels. Shown are the dose response curves for the effect of insulin to reduce FFA obtained in the absence and presence of Compound A (0.5 mg/kg) in awake rats. Both insulin and Compound A were given via IP injection. Each data point is the mean±SEM of the maximal (peak effect) percent decrease in FFA levels from baseline from three to five rats.
# as §1
# The effect of insulin (0.005-1 U/kg) to reduce serum FFA was determined in the absence and presence of a single dose (0.5 mg/kg) of Compound A (FIG. 6). Baseline FFA levels before insulin administration in vehicle and Compound A treated groups were 0.84±0.01 and 0.92±0.02 mM, respectively. […] The insulin dose response to reduce FFA levels was then repeated in the presence of Compound A (0.5 mg/kg). Compound A alone (0.5 mg/kg) caused an 18% decrease in FFA levels. The doses of insulin that cause 50% decrease (ED50) in FFA levels in the absence and presence of Compound A were 0.4 and 0.1 U/kg, respectively.
structure (smiles),measurement,setting,value
"O[C@@H]1[C@H](O)[C@@H](CSc2ccccc2F)O[C@H]1n1cnc2c(N[C@@H]3CCC[C@H]3O)ncnc21 [Compound A, 2-{6-[((1R,2R)-2-hydroxycyclopentyl)amino]purin-9-yl}(4S,5S,2R,3R)-5-[(2-fluorophenylthio)methyl]oxolane-3,4-diol]",maximal decrease in FFA levels,awake rats [1]; 1 mg/kg iv bolus,54±5%
same,FFA level after treatment,"awake rats [1]; 1 mg/kg iv bolus, from 0.79±0.04 mM, p<0.001",0.36 ± 0.05 mM
same,FFA level after first iv injection,"awake rats [1]; 1 mg/kg iv, first of three repeated injections, baseline 0.88±0.02 mM",0.35 ± 0.04 mM
same,FFA level after second iv injection,"awake rats [1]; 1 mg/kg iv, second of three repeated injections, baseline 0.88±0.02 mM",0.35 ± 0.03 mM
same,FFA level after third iv injection,"awake rats [1]; 1 mg/kg iv, third of three repeated injections, baseline 0.88±0.02 mM",0.38 ± 0.03 mM
same,decrease in FFA below baseline,awake rats [1]; 2.5 mg/kg oral gavage,31%
same,FFA level after treatment,"awake rats [1]; 2.5 mg/kg oral gavage, from baseline 0.7±0.05 mM, p<0.05",0.5 ± 0.03 mM
same,decrease in FFA levels,awake rats [1]; 5 mg/kg oral gavage,47%
same,FFA level after treatment,"awake rats [1]; 5 mg/kg oral gavage, from 0.8±0.04 mM, p<0.01",0.4 ± 0.03 mM
same,decrease in FFA levels,awake rats [1]; 10 mg/kg oral gavage,57%
same,FFA level after treatment,"awake rats [1]; 10 mg/kg oral gavage, from 0.68±0.04 mM, p<0.001",0.29 ± 0.02 mM
same,duration of the effect to suppress lipolysis,"awake rats [1]; 2.5, 5, 10 mg/kg oral gavage",dose-dependent
same,"lowering of FFA levels, dose dependence","awake rats [1]; 2.5, 5, 10 mg/kg oral gavage",dose-dependent manner
same,rebound increase of FFA levels,awake rats [1]; after iv bolus,not observed
same,acute tachyphylaxis of the FFA lowering effect,"awake rats [1]; three repeated iv injections, 1 mg/kg",did not undergo acute tachyphylaxis
same,increase in serum TG caused by Triton vs vehicle-treated animals,"normal rats; 180 minutes post-treatment, p<0.01",significantly less
same,slope of the time-dependent TG increase caused by Triton (linear regression),"normal rats; FIG. 3 legend: 5 mg/kg SC, Triton 400 mg/kg iv, 4 hour fast, vehicle 5.6±0.1",3.8±0.2
same,"TG accumulation, slope of the line (linear regression)","normal rats; text: Triton 600 mg/kg, vehicle printed as 3.8±0.17, p<0.001",5.6 ± 0.12 mg/dL/min
same,decrease in FFA levels by Compound A alone,awake rats [2]; 0.5 mg/kg IP,18%
same,leftward shift of the insulin dose-response to lower FFA,awake rats [2]; Compound A 0.5 mg/kg,4 fold
